Experimental data: patent publication US4826817A, “Amino acid and hydroxyamino acid transporter compounds for therapeutic applications, process and use” (priority 1986, dated 1989)

What was measured:
[1] = Plasma and brain levels of L-tyrosine after intraperitoneal injection to rats; settings: rat; for concentration at 0.5 h / concentration at 2 h: ip, 1620 umol/kg
Description: Male CD-COBS rats (Charles River, Italy) weighing 200 g were used. The animals housed under standard conditions of light-dark cycle, temperature and humidity with free access to water and food. […] Controls received saline. Rates were killed by decapitation 30 and 120 min. after treatment. Plasma and brain were rapidly removed and kept at -20° C. until assay.

[2] = Plasma and brain levels of L-tyrosine after intravenous injection to rats; type: in vivo, rat (male CD-COBS); settings: rat, i.v. 1.62 mmol/kg, Table I
Excerpt: Controls received saline.

Row | SMILES | concentration at 0.5 h ([1]; brain) [ng/g] | concentration at 2 h ([1]; brain) [ng/g] | brain L-tyrosine concentrations (in words) ([1]; i.p. 1.62 mmol/kg, both intervals (30 and 120 min), Table II, L-tyrosine p<0.05, O-L-lysyl-L-tyrosine p<0.01) | concentration at 0.5 h ([1]; plasma) [ng/g] | concentration at 2 h ([1]; plasma) [ng/g] | Plasma L-tyrosine (in words) [2] | brain L-tyrosine concentrations (in words) ([2]; both intervals (30 and 120 min))
1 | N[C@@H](Cc1ccc(O)cc1)C(=O)O [L-tyrosine] | 20200 ± 1750 | 21800 ± 1520 | significantly increased | 16900 ± 2060 | 12700 ± 2230 | – | –
2 | NCCCC[C@H](N)C(=O)Oc1ccc(C[C@H](N)C(=O)O)cc1 [O-L-lysyl-L-tyrosine] | – | – | – | – | – | significantly raised by only 30 min. after the i.v. dose | significantly increased
